≈ marks a conversion by molar mass, not a printed value.
Experiments:
Format in all cases: cell-based
E. Coli ATCC BAA-200 = assay: MIC, broth microdilution (CLSI), E. Coli ATCC BAA-200; conditions: Escherichia coli, ATCCBAA200; E. Coli ATCC BAA-200, SHV-4, ESBL producing strain; 5×10^5 cfu/mL; cation-adjusted Iso-Sensitest broth containing human Apo-transferrin; read-out: Minimum Inhibitory Concentration (MIC)
Description: (§1) Compound (I) of the present invention was evaluated for in vitro antimicrobial activity thereof.
(§2) Measurement of Minimum Inhibitory Concentration (MIC: μg/mL) was conducted according to CLSI (Clinical and Laboratory Standards Institute) method, and the amount of bacteria for inoculation was 5×10^5 cfu/mL, and cation-adjusted Iso-Sensitest broth containing human Apo-transferrin was used as a test medium, and the experiment was conducted using broth microdilution method.

E. cloacae 1481026 = assay: MIC, broth microdilution (CLSI), E. cloacae 1481026; conditions: Enterobacter cloacae, 5×10^5 cfu/mL, cation-adjusted Iso-Sensitest broth containing human Apo-transferrin, read-out: Minimum Inhibitory Concentration (MIC)
Description: as §1, §2

E. Coli ATCC BAA-196 = assay: MIC, broth microdilution (CLSI), E. Coli ATCC BAA-196; conditions: Escherichia coli, ATCCBAA196; E. Coli ATCC BAA-196, TEM-10, ESBL producing strain; 5×10^5 cfu/mL; cation-adjusted Iso-Sensitest broth containing human Apo-transferrin; read-out: Minimum Inhibitory Concentration (MIC)
Description: as §1, §2

P. aeruginosa 378057 = assay: MIC, broth microdilution (CLSI), P. aeruginosa 378057; conditions: Pseudomonas aeruginosa, 5×10^5 cfu/mL, cation-adjusted Iso-Sensitest broth containing human Apo-transferrin, read-out: Minimum Inhibitory Concentration (MIC)
Description: as §1, §2

A. baumannii 1484820 = assay: MIC, broth microdilution (CLSI), A. baumannii 1484820; conditions: Acinetobacter baumannii, 5×10^5 cfu/mL, cation-adjusted Iso-Sensitest broth containing human Apo-transferrin, read-out: Minimum Inhibitory Concentration (MIC)
Description: as §1, §2

MIC (E. Coli ATCC BAA-200) | MIC (E. cloacae 1481026) | MIC (E. Coli ATCC BAA-196) | MIC (P. aeruginosa 378057) | MIC (A. baumannii 1484820) | SMILES
0.25 µg/mL (≈ 0.356 µM) | 4 µg/mL (≈ 5.7 µM) | 0.125 µg/mL (≈ 0.178 µM) | 0.063 µg/mL (≈ 0.0898 µM) | 0.5 µg/mL (≈ 0.713 µM) | CC(C)(O/N=C(\C(=O)N[C@@H]1C(=O)N2C(C(=O)O)=C(C[N+]3(Cc4noc5cc(O)c(O)cc45)CCCC3)CS[C@H]12)c1csc(N)n1)C(=O)[O-] [Compound I-9]
0.125 µg/mL | 1 µg/mL | ≤ 0.031 µg/mL | ≤ 0.031 µg/mL | 1 µg/mL | CC(C)(O/N=C(\C(=O)N[C@@H]1C(=O)N2C(C(=O)[O-])=C(C[N+]34CCC(Cn5ncc6cc(O)c(O)cc6c5=O)(CC3)C4)CS[C@H]12)c1csc(N)n1)C(=O)[O-].[Na+] [Compound I-22]
0.125 µg/mL (≈ 0.165 µM) | 0.5 µg/mL (≈ 0.66 µM) | 0.063 µg/mL (≈ 0.0831 µM) | ≤ 0.031 µg/mL | 0.25 µg/mL (≈ 0.33 µM) | CC(C)(O/N=C(\C(=O)N[C@@H]1C(=O)N2C(C(=O)O)=C(C[N+]3(CCN4C(=O)c5ccc(O)c(O)c5C4=O)CCCCC3)CS[C@H]12)c1csc(N)n1)C(=O)[O-] [Compound I-7]
0.125 µg/mL (≈ 0.163 µM) | 0.5 µg/mL (≈ 0.651 µM) | 0.063 µg/mL (≈ 0.0821 µM) | ≤ 0.031 µg/mL | 0.063 µg/mL (≈ 0.0821 µM) | CC(C)(O/N=C(\C(=O)N[C@@H]1C(=O)N2C(c3nnn[nH]3)=C(C[N+]3(CCN4C(=O)c5ccc(O)c(O)c5C4=O)CCCC3)CS[C@H]12)c1csc(N)n1)C(=O)[O-] [Compound I-11]
0.063 µg/mL | 0.5 µg/mL | 0.063 µg/mL | ≤ 0.031 µg/mL | 0.25 µg/mL | CC[N+](CC)(CCN1C(=O)c2ccc(O)c(O)c2C1=O)CC1=C(c2nn[nH]n2)N2C(=O)[C@@H](NC(=O)/C(=N\OC(C)(C)C(=O)O)c3csc(N)n3)[C@H]2SC1.[Na+] [Compound I-19]

The remaining lines, values behind:

SMILES | MIC (E. Coli ATCC BAA-200) | MIC (E. cloacae 1481026) | MIC (E. Coli ATCC BAA-196) | MIC (P. aeruginosa 378057) | MIC (A. baumannii 1484820)
CC(C)(O/N=C(\C(=O)N[C@@H]1C(=O)N2C(c3nnn[n-]3)=C(C[N+]3(CCN4C(=O)c5ccc(O)c(O)c5C4=O)CCCCC3)CS[C@H]12)c1csc(N)n1)C(=O)[O-].[Na+] [Compound I-15] | 0.125 µg/mL | 0.5 µg/mL | 0.125 µg/mL | 0.063 µg/mL | 0.25 µg/mL
CC(C)(O/N=C(\C(=O)N[C@@H]1C(=O)N2C(C(=O)O)=C(C[N+]34CCC(CN5C(=O)c6ccc(O)c(O)c6C5=O)(CC3)CC4)CS[C@H]12)c1csc(N)n1)C(=O)[O-] [Compound I-5] | 0.25 µg/mL (≈ 0.325 µM) | 16 µg/mL (≈ 20.8 µM) | 0.25 µg/mL (≈ 0.325 µM) | ≤ 0.031 µg/mL | 1 µg/mL (≈ 1.3 µM)
CC(C)(O/N=C(\C(=O)N[C@@H]1C(=O)N2C(C(=O)O)=C(C[N+]3(CCN4C(=O)c5c(Cl)cc(O)c(O)c5C4=O)CCCC3)CS[C@H]12)c1csc(N)n1)C(=O)[O-] [Compound I-3] | 0.125 µg/mL (≈ 0.161 µM) |  | 0.125 µg/mL (≈ 0.161 µM) | 0.063 µg/mL (≈ 0.081 µM) | 0.25 µg/mL (≈ 0.321 µM)
CC[N+](CC)(CCN1C(=O)c2ccc(O)c(O)c2C1=O)CC1=C(C(=O)[O-])N2C(=O)[C@@H](NC(=O)/C(=N\O[C@@H](CC(=O)[O-])C(=O)[O-])c3csc(N)n3)[C@H]2SC1.[Na+].[Na+] [Compound I-18] | 0.063 µg/mL | 0.5 µg/mL | 0.063 µg/mL | ≤ 0.031 µg/mL | 0.25 µg/mL
CC(C)(O/N=C(\C(=O)N[C@@H]1C(=O)N2C(C(=O)[O-])=C(C[N+]34CCC(CNC(=O)C(=O)c5cc(O)c(O)c(F)c5)(CC3)CC4)CS[C@H]12)c1csc(N)n1)C(=O)[O-].[Na+] [Compound I-20] | 0.25 µg/mL | 2 µg/mL | 0.063 µg/mL | ≤ 0.031 µg/mL | 4 µg/mL
CC(C)(O/N=C(\C(=O)N[C@@H]1C(=O)N2C(c3nnn[nH]3)=C(C[N+]3(CCN4C(=O)c5ccc(O)c(O)c5C4=O)CCCC3)CS[C@H]12)c1nc(N)sc1Cl)C(=O)[O-] [Compound I-14] | 0.063 µg/mL (≈ 0.0785 µM) | 0.5 µg/mL (≈ 0.623 µM) | ≤ 0.031 µg/mL | ≤ 0.031 µg/mL | 0.125 µg/mL (≈ 0.156 µM)
CC[N+](CC)(CCN1C(=O)c2ccc(O)c(O)c2C1=O)CC1=C(C(=O)[O-])N2C(=O)[C@@H](NC(=O)/C(=N\OC(C)(C)C(=O)[O-])c3csc(N)n3)[C@H]2SC1.[Na+] [Compound I-17] | 0.063 µg/mL | 0.5 µg/mL | 0.063 µg/mL | ≤ 0.031 µg/mL | 0.5 µg/mL

— patent US20150344502A1, “CEPHEM COMPOUND” (SHIONOGI & CO., LTD., priority 2012, published 2015)
